Data taken from patent publication US20240115711A1, “Novel Bifunctional Molecules For Targeted Protein Degradation” (Amphista Therapeutics Limited, priority 2020, published 2024).

Biological target: T1, mutant EGFR (L858R) (Homo sapiens, UniProt P00533, L858R/T790M)
T1 construct: endogenous in cells; host or cells: NCI-H1975
Assay: Assay 8 - Degradation of mutant EGFR by immunoblot (NCI-H1975 cells)
Type: cell-based
Conditions: after 24 h treatment with 1000 nM
Method: 1.8 Assay 8—Degradation of Mutant EGFR by Immunoblot.
NCI-H1975 (1.5×10^5) cells were seeded in 12-well plates (1 mL medium) overnight prior to 24 h treatment with test compounds at the desired concentration (DMSO final concentration 0.1%). After 24 h incubation, cells were washed with PBS and lysed with RIPA buffer (Sigma) supplemented with 1× protease inhibitor cocktail (Roche) and 1 U/mL Benzonase (Merck). Lysates were clarified by centrifugation (17,000×g, 20 min, 4° C.) and the total protein content of the supernatant was quantified using a BCA assay. Samples were prepared using equal amounts of total protein and LDS sample buffer (Invitrogen). […] Blots were visualised using a Bio-Rad ChemiDoc MP Imaging System, and band quantification was performed using Image Studio software (LiCor). […] Degradation data was plotted and analysed using Prism (Graphpad, version 8).
The degradation of target protein mutant EGFR (L858R) was detected according to the procedure outlined in assay 8 for the compound A67.

T1 sequence (P00533 25-1210 T790M/L858R): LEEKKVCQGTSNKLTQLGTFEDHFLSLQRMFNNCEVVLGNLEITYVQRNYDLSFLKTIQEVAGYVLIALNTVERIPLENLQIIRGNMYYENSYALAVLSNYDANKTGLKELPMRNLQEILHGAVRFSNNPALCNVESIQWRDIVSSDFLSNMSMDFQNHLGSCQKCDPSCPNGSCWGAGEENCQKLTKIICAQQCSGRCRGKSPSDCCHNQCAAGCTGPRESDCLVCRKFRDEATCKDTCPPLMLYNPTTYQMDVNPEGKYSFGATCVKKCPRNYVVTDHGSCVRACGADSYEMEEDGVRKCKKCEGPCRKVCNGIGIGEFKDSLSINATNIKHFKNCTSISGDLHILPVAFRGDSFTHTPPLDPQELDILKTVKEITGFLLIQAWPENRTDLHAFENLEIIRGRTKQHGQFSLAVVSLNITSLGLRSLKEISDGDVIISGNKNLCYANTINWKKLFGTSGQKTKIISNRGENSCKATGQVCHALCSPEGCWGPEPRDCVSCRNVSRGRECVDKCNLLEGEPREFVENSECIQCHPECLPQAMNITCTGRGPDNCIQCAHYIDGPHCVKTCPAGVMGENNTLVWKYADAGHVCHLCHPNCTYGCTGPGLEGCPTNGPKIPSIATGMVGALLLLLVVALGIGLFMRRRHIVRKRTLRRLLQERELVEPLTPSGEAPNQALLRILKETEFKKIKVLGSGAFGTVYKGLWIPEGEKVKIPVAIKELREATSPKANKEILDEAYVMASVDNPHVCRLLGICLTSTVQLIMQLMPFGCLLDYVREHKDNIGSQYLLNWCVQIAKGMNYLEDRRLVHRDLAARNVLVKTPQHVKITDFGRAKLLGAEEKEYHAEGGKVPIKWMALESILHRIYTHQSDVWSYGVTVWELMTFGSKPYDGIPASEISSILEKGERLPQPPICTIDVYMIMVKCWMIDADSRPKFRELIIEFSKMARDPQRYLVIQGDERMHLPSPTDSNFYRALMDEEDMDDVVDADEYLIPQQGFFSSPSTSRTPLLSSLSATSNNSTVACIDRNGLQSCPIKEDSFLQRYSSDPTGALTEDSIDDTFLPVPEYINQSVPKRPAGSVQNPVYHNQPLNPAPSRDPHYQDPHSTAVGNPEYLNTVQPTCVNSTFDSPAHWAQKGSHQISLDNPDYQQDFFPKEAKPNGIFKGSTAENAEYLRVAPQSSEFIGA

Compound: CCCC(c1ccc(CCC(=O)NCCCN2CCN(CCCNC(=O)c3nn(C(C)C)c4cc(Nc5ccnc(N6CCC(OC)CC6)n5)ncc34)CC2)cc1)N(C)C(=O)/C(C#N)=C/c1nccs1 (stereo not shown) [Example A67, (E)-N-(3-(4-(3-(3-(4-(1-(2-cyano-N-methyl-3-(thiazol-2-yl)acrylamido)butyl)phenyl)propanamido)propyl)piperazin-1-yl)propyl)-1-isopropyl-6-((2-(4-methoxypiperidin-1-yl)pyrimidin-4-yl)amino)-1H-pyrazolo[4,3-c]pyridine-3-carboxamide]
- residual EGFR (L858R) abundance: less than 50%
